Legend:
pancreas-α-amylase = biological target: T1, pancreas-α-amylase (Sus scrofa, UniProt P00690); test: In vitro amylase test; format: biochemical
T1 sequence (P00690 16-511): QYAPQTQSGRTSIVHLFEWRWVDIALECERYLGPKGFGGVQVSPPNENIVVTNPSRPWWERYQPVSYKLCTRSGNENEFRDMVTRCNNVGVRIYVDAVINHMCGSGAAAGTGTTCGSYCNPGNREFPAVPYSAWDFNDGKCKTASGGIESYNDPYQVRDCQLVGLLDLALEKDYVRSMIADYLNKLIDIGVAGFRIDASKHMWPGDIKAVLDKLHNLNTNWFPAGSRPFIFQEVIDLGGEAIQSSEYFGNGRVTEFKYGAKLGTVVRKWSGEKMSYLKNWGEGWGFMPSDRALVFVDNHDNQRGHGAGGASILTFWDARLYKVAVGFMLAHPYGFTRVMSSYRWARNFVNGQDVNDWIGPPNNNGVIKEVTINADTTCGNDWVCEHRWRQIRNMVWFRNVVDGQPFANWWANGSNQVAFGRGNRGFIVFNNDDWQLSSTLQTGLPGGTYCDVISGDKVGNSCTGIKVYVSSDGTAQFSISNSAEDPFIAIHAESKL
Procedure: One amylase inhibitor unit (1 AIU) is defined as the amount of inhibitor which inhibits two amylase units to the extent of 50%. One amylase unit (AU) is the amount of enzyme which under the test conditions specified below splits 1 μequivalent of glucoside bonds in the starch per minute. The μequivalents of split bonds are determined colorimetrically as μequivalents of reducing sugars formed, using dinitrosalicylic acid, and are quoted as μequivalents of maltose equivalents, using a maltose calibration curve. To carry out the test, 0.1 ml of amylase solution (20-22 AU/ml) are mixed with 0-10 μg of inhibitor or 0-20 μl of the solution to be tested in 0.4 ml of 0.02 M sodium glycerophosphate buffer/0.001 M CaCl2, pH 6.9, and the mixture is equilibrated for 10-20 minutes in a water bath at 35° C. The mixture is then incubated for 5 minutes at 35° C with 0.5 ml of a 1% strength starch solution which has been pre-warmed to 35° C (soluble starch No. 1,252 from Merck, Darmstadt), and thereafter 1 ml of dinitrosalicyclic acid reagent (according to P. bernfeld in Colowick-Kaplan, Meth. Enzymol., Volume l, page 149) is added. To develop the color, the batch is heated for 5 minutes on a boiling water bath and then cooled, and 10 ml of distilled water are added. The extinction at 540 nm is measured against a correspondingly made-up blank without amylase. […] The percentage inhibition is plotted as a function of the quotient [formula]

maltase = test: In vitro maltase test; format: biochemical, pig; details: Table II
Procedure: One maltase inhibitor unit (MIU) is defined as the amount of inhibitor which inhibits two maltase units to the extent of 50%. One maltase unit (MU) is the amount of enzyme which in one minute, under the test conditions specified below, splits 1 μmol of maltose into 2 μmol of glucose. The μmol of glucose formed are determined quantitatively by means of the glucose oxidase reaction under conditions such that further splitting of maltose by the maltase no longer takes place. To carry out the test, 0.05 ml of solubilized maltase [from the mucous membrane of the small intestine of the pig, according to B. Borgstrom, A, Dahlquist, Acta Chem, Scan. […] The mixture is equilibrated for 10 minutes at 35° C and 0.1 ml of an 0.05 M maltose solution in 0.1 M sodium maleate buffer of pH 6.0, pre-warmed to 35° C, is then added. The mixture is incubated for 20 minutes at 35° C and the maltase reaction is stopped by addition of 1 ml of the glucose oxidase reagent described above, and the incubation is continued for a further 30 minutes at 35° C. Thereafter, 1 ml of 50% strength sulfuric acid is added and a measurement carried out at 545 nm against a corresponding blank.

saccharase = biological target: T2, saccharase (Rattus norvegicus, UniProt P23739); test: In vivo saccharase inhibition (sucrose overfeeding test) in the fasting rat
T2 construct: from tissue; host or cells: intestine of the living rat (endogenous enzyme)
T2 sequence (P23739 1014-1841 limits assumed): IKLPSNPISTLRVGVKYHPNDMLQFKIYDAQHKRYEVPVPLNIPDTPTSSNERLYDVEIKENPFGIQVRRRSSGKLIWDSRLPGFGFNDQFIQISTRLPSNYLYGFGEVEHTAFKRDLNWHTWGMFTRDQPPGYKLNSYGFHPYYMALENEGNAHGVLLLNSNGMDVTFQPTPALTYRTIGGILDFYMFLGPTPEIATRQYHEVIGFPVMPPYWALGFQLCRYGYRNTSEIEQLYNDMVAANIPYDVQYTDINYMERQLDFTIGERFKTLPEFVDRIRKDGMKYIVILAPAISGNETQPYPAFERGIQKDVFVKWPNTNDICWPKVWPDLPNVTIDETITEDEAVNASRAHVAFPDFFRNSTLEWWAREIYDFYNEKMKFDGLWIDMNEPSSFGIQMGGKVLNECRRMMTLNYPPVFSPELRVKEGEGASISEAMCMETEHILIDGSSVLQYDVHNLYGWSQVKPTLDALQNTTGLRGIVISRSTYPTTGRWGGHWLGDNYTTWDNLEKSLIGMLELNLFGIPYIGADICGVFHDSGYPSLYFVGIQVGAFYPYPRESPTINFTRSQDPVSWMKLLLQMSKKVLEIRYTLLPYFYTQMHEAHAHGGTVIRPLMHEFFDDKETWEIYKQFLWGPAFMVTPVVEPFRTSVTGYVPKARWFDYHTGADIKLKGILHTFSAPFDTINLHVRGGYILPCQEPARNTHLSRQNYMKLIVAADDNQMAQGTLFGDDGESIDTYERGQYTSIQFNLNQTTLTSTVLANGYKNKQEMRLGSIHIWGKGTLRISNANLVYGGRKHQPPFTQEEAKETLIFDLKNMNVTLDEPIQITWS
T2 sequence (P23739 2-1013 partner limits assumed): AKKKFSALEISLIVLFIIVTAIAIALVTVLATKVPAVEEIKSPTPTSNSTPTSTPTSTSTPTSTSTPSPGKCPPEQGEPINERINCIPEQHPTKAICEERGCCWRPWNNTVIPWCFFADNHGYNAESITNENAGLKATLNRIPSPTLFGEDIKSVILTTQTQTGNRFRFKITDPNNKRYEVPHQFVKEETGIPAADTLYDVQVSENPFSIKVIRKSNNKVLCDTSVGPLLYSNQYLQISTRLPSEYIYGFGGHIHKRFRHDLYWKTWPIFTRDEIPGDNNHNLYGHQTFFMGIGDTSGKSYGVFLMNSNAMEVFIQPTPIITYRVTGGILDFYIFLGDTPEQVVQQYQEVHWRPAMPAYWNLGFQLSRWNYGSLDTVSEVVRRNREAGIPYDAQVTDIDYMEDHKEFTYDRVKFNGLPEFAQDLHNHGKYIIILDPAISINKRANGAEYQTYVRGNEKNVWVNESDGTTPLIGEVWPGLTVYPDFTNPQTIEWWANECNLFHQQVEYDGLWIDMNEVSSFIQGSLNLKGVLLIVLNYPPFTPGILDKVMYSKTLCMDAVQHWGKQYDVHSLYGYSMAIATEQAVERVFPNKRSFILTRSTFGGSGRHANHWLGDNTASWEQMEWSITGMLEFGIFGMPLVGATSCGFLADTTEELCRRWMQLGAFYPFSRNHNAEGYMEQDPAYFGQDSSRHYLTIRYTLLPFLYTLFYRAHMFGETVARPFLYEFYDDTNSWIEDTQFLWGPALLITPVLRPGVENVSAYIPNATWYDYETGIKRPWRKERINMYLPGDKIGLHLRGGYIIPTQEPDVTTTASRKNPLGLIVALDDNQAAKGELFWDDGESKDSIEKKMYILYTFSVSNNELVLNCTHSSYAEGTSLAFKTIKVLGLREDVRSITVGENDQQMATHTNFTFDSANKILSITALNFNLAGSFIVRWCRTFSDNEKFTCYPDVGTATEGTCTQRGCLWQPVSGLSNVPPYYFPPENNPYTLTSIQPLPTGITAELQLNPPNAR
Procedure: The produce an alimentary hyperglycemia and hyperinsulinaemia, groups of 6 fasting rats are given (a) 2.5 g of sucrose, (b) 2.5 g of maltose or (c) 1 g of boiled starch orally, in aqueous solution or suspension. Six other rats are given the same carbohydrates in the same amount and a glycoside hydrolase inhibitor in the amount indicated. In addition, six other rats are given an appropriate volume of saline. The blood glucose and the serum insulin are then measured at short intervals of time, in the blood from the retro-orbital venous plexus. Blood glucose determinations are carried out in the Auto-Analyser device (Technicon), according to Hoffmann: J. biol.

starch digestion = test: In vivo starch digestion inhibition (starch feeding test) in the fasting rat

## C[C@H]1O[C@H](O[C@H]2[C@H](O)[C@@H](O)[C@@H](O[C@H]3[C@H](O)[C@@H](O)C(O)O[C@@H]3CO)O[C@@H]2CO)[C@H](O)[C@@H](O)[C@@H]1N[C@H]1C=C(CO)[C@@H](O[C@H]2O[C@H](CO)[C@@H](O)[C@H](O)[C@H]2O)[C@H](O)[C@H]1O (stereo partly drawn) [Formula V, O-{4,6-bisdesoxy-4-[1 S-(1,4,6/5)-4,5,6-trihydroxy-3-hydroxymethyl-4-O-α-D-glucopyranosyl-(1→4)-cyclohex-2-en-1-ylamino]-α-D-glycopyranosyl}-(1→4)-O-α-D-glucopyranosyl-(1→4)-D-glucopyranose]
pancreas-α-amylase; in vitro, Table II
  α-Amylase Inhibition: 1,400,000 AIU/g
pancreas-α-amylase; in vitro, Table VI
  α-Amylase Inhibition In Vitro: 1,400 AIU/mg
pancreas-α-amylase; isolated product of the Examples
  amylase inhibiting activity of isolated product: 1.4 × 10^6 AIU/g
maltase
  Maltase Inhibition: 5,000 MIU/g
saccharase; 2.5 g sucrose + 25 SIU oral, 15 Min.
  Blood Glucose (Mean ± SD): 88 ± 11.4 mg%
saccharase; 2.5 g sucrose + 25 SIU oral, 30 Min.
  Blood Glucose (Mean ± SD): 101 ± 12.0 mg%
saccharase; 2.5 g sucrose + 25 SIU oral, 45 Min.
  Blood Glucose (Mean ± SD): 104 ± 7.4 mg%
saccharase; 2.5 g sucrose + 50 SIU oral, 15 Min.
  Blood Glucose (Mean ± SD): 91 ± 9.4 mg%
saccharase; 2.5 g sucrose + 50 SIU oral, 30 Min.
  Blood Glucose (Mean ± SD): 106 ± 7.0 mg%
saccharase; 2.5 g sucrose + 50 SIU oral, 45 Min.
  Blood Glucose (Mean ± SD): 94 ± 9.0 mg%
saccharase; 2.5 g sucrose + 100 SIU oral, 15 Min.
  Blood Glucose (Mean ± SD): 81 ± 7.2 mg%
saccharase; 2.5 g sucrose + 100 SIU oral, 30 Min.
  Blood Glucose (Mean ± SD): 90 ± 8.0 mg%
saccharase; 2.5 g sucrose + 100 SIU oral, 45 Min.
  Blood Glucose (Mean ± SD): 97 ± 1.6 mg%
saccharase; read-out: Saccharase Inhibition (ED50 mg/kg), ED50, sucrose, fasting rat, Table IV, read-out: Saccharase Inhibition In Vitro (ED50 mg/kg)
  ED50: 2.65 mg/kg
Starch digestion; 1 g starch + 750 AIU oral, 5 Min.
  Blood Glucose (Mean ± SD): 86 ± 8.5 mg%
Starch digestion; 1 g starch + 750 AIU oral, 10 Min.
  Blood Glucose (Mean ± SD): 107 ± 5.0 mg%
Starch digestion; 1 g starch + 750 AIU oral, 15 Min.
  Blood Glucose (Mean ± SD): 117 ± 8.7 mg%
Starch digestion; 1 g starch + 750 AIU oral, 20 Min.
  Blood Glucose (Mean ± SD): 121 ± 12 mg%
Starch digestion; 1 g starch + 750 AIU oral, 30 Min.
  Blood Glucose (Mean ± SD): 126 ± 11 mg%
Starch digestion; 1 g starch + 750 AIU oral, 45 Min.
  Blood Glucose (Mean ± SD): 114 ± 3.6 mg%
Starch digestion; 1 g starch + 1,500 AIU oral, 5 Min.
  Blood Glucose (Mean ± SD): 77 ± 14 mg%
Starch digestion; 1 g starch + 1,500 AIU oral, 10 Min.
  Blood Glucose (Mean ± SD): 92 ± 9.6 mg%
Starch digestion; 1 g starch + 1,500 AIU oral, 15 Min.
  Blood Glucose (Mean ± SD): 94 ± 9.5 mg%
Starch digestion; 1 g starch + 1,500 AIU oral, 20 Min.
  Blood Glucose (Mean ± SD): 113 ± 9.7 mg%
Starch digestion; 1 g starch + 1,500 AIU oral, 30 Min.
  Blood Glucose (Mean ± SD): 112 ± 8.8 mg%
Starch digestion; 1 g starch + 1,500 AIU oral, 45 Min.
  Blood Glucose (Mean ± SD): 111 ± 4.2 mg%
Starch digestion; 1 g starch + 3,000 AIU oral, 5 Min.
  Blood Glucose (Mean ± SD): 65 ± 5.6 mg%
Starch digestion; 1 g starch + 3,000 AIU oral, 10 Min.
  Blood Glucose (Mean ± SD): 101 ± 3.3 mg%
Starch digestion; 1 g starch + 3,000 AIU oral, 15 Min.
  Blood Glucose (Mean ± SD): 82 ± 11 mg%
Starch digestion; 1 g starch + 3,000 AIU oral, 20 Min.
  Blood Glucose (Mean ± SD): 112 ± 4.5 mg%
Starch digestion; 1 g starch + 3,000 AIU oral, 30 Min.
  Blood Glucose (Mean ± SD): 109 ± 6.4 mg%
Starch digestion; 1 g starch + 3,000 AIU oral, 45 Min.
  Blood Glucose (Mean ± SD): 104 ± 2.5 mg%
Starch digestion; ED50, starch, fasting rat, Table VI
  ED50: 1.61 mg/kg
Starch digestion; compared with expectation from in vitro amylase inhibition
  in vivo inhibition of starch digestion, in words: much higher than would be expected

Reference: patent US4062950A, “Amino sugar derivatives” (priority 1973, dated 1977)
